Experimental data from the supplement of paper PMC13380429.

Assays:
Settings in all cases: 72 h
HepG2 [1] = experiment: drug sensitivity score (DSS) for viability; higher = more toxic; extreme values may be limits of the assay
Calu-3 [2] = experiment: as above
Caco-2 [3] = experiment: as above
Vero E6 [4] = experiment: as above
U2OS [5] = experiment: as above
HepG2 [6] = experiment: relative viability EC50 (midpoint between 100% and the lowest measured viability); higher = less toxic
Vero E6 [7] = experiment: as above
U2OS [8] = experiment: as above
HepG2 [9] = experiment: cell viability relative to DMSO; higher = less toxic
Calu-3 [10] = experiment: as above
Caco-2 [11] = experiment: as above
Vero E6 [12] = experiment: as above
U2OS [13] = experiment: as above
Caco-2 [14] = experiment: relative viability EC50 (midpoint between 100% and the lowest measured viability); higher = less toxic

| SMILES | drug sensitivity score (HepG2 [1]) | drug sensitivity score (Calu-3 [2]) | drug sensitivity score (Caco-2 [3]) | drug sensitivity score (Vero E6 [4]) | drug sensitivity score (U2OS [5]) | relative viability EC50 (HepG2 [6]) | relative viability EC50 (Vero E6 [7]) | relative viability EC50 (U2OS [8]) | cell viability (HepG2 [9]; 1 nM) | cell viability (HepG2 [9]; 10 nM) | cell viability (HepG2 [9]; 100 nM) | cell viability (HepG2 [9]; 1000 nM) | cell viability (HepG2 [9]; 10000 nM) | cell viability (Calu-3 [10]; 1 nM) | cell viability (Calu-3 [10]; 10 nM) | cell viability (Calu-3 [10]; 100 nM) | cell viability (Calu-3 [10]; 1000 nM) | cell viability (Calu-3 [10]; 10000 nM) | cell viability (Caco-2 [11]; 1 nM) | cell viability (Caco-2 [11]; 10 nM) | cell viability (Caco-2 [11]; 100 nM) | cell viability (Caco-2 [11]; 1000 nM) | cell viability (Caco-2 [11]; 10000 nM) | cell viability (Vero E6 [12]; 1 nM) | cell viability (Vero E6 [12]; 10 nM) | cell viability (Vero E6 [12]; 100 nM) | cell viability (Vero E6 [12]; 1000 nM) | cell viability (Vero E6 [12]; 10000 nM) | cell viability (U2OS [13]; 1 nM) | cell viability (U2OS [13]; 10 nM) | cell viability (U2OS [13]; 100 nM) | cell viability (U2OS [13]; 1000 nM) | cell viability (U2OS [13]; 10000 nM) | relative viability EC50 (Caco-2 [14]) |
| --- | --- | --- | --- | --- | --- | --- | --- | --- | --- | --- | --- | --- | --- | --- | --- | --- | --- | --- | --- | --- | --- | --- | --- | --- | --- | --- | --- | --- | --- | --- | --- | --- | --- | --- |
| Cc1ccc(-c2nn(C(C)(C)CNC(=O)c3ncccc3C)c3ncnc(N)c23)cc1 [WEHI-345-analog] | 4.5 | 2.8 | 2 | 4.1 | 3 | 2490 nM | 2.62 µM | 3.51 µM | 109% | 97.5% | 99.7% | 94.6% | 34.2% | 99.6% | 110% | 86% | 97.8% | 52.2% | 96.3% | 100% | 95.5% | 101% | 58.9% | 100% | 97.7% | 99.8% | 95.7% | 37.2% | 98.3% | 108% | 94.3% | 104% | 38.4% |  |
| CN(N=O)C(=O)N[C@@H](C=O)[C@@H](O)[C@H](O)[C@H](O)CO [streptozotocin] | 0 |  | 1 | 0 | 0 | > 10000 nM | > 10 µM | > 10 µM | 98.3% | 90.7% | 104% | 101% | 101% |  |  |  |  |  | 106% | 82.3% | 79.9% | 85.2% | 96.2% | 98.5% | 98.1% | 98.4% | 96.7% | 92.6% | 106% | 97.5% | 100% | 102% | 103% | > 10 µM |
| COC(=O)[C@@H]1CC2=CC(=O)CC[C@]2(C)[C@@]23O[C@@H]2C[C@@]2(C)[C@@H](CC[C@@]24CCC(=O)O4)[C@H]13 [eplerenone] |  |  | 0 | 0 |  |  | > 10 µM |  |  |  |  |  |  |  |  |  |  |  | 98.4% | 101% | 85.8% | 92.8% | 98.4% | 99.7% | 100% | 99.1% | 101% | 95% |  |  |  |  |  | > 10 µM |
| Nc1ccc(C(=O)Oc2ccccc2)c(O)c1 [phenyl-aminosalicylate] | 1 | 0 |  | 0 | 0 |  |  |  |  |  |  |  |  |  |  |  |  |  |  |  |  |  |  |  |  |  |  |  |  |  |  |  |  |  |
| CC(COc1ccccc1)NC(C)C(O)c1ccc(O)cc1 (configuration not stated) [isoxsuprine] | 0 | 0 |  | 0 |  |  |  |  |  |  |  |  |  |  |  |  |  |  |  |  |  |  |  |  |  |  |  |  |  |  |  |  |  |  |
| CN[C@@H](C)[C@H](O)c1ccccc1 [ephedrine] | 0 |  |  | 0 | 0 |  |  |  |  |  |  |  |  |  |  |  |  |  |  |  |  |  |  |  |  |  |  |  |  |  |  |  |  |  |
| CCN(CC)CCOC(=O)C1(c2ccccc2)CCCC1 [caramiphen] | 0 | 0 |  | 0 | 0 |  |  |  |  |  |  |  |  |  |  |  |  |  |  |  |  |  |  |  |  |  |  |  |  |  |  |  |  |  |
| O=S(=O)(c1cccc2c(O)nccc12)N1CCCNCC1 [hydroxyfasudil] | 0 | 0 | 0 | 0 | 0 |  |  |  | 96.6% | 97.7% |  | 97.7% | 98.3% | 91.6% | 94.1% | 110% | 119% | 136% | 98.7% | 99.3% | 94% | 107% | 109% | 95.7% | 95.8% | 96.4% | 90.3% | 107% | 95.4% | 101% | 96.4% |  | 102% |  |
| CNC(=O)[C@H](Cc1ccccc1)NC(=O)[C@H](CC(C)C)[C@H](CSc1cccs1)C(=O)NO [batimastat] | 0 | 3.8 | 0.3 | 1.4 | 0 | > 10000 nM | > 10 µM | > 10 µM | 98.2% | 95.6% | 99% | 90.9% | 93.6% | 92.9% | 96.2% | 89.4% | 82.9% | 65.5% | 94.1% | 105% | 92.8% | 94.2% | 85% | 93.4% | 97.7% | 92.3% | 84.4% | 83.8% | 94.3% | 105% | 97% | 98.4% | 90.1% | > 10 µM |
| CCOc1ccc(C(=O)OCCN(CC)CC)cc1 [parethoxycaine] | 0 |  | 0 | 0 | 0 | > 10000 nM | > 10 µM | > 10 µM | 98.6% | 116% | 106% | 108% | 102% |  |  |  |  |  | 97.1% | 85.1% | 95.6% | 93.7% | 104% | 94.6% | 95.6% | 92.3% | 97.5% | 111% | 101% | 92.8% | 103% | 98.1% | 98.8% | > 10 µM |
| COC(=O)Nc1nc2cc(C(=O)c3ccccc3)ccc2[nH]1 [mebendazole] | 10.1 | 3.4 | 7 | 5.9 | 7.3 | 387 nM | 1.59 µM | 0.774 µM | 97.5% | 109% | 102% | 44.3% | 40.9% | 81.1% | 107% | 95% | 84.6% | 61.3% | 91.6% | 104% | 88.4% | 67.2% | 55.6% | 111% | 97.6% | 102% | 84.7% | 35.6% | 95.5% | 102% | 95.5% | 66% | 41.2% |  |
